Results on 5 compounds are retold here after patent publication EP1106702A1, “High-throughput screening of compounds using electrospray ionization mass spectrometry (ESI-MS)” (AGOURON PHARMACEUTICALS, INC., priority 1999, dated 2001).

For assay [1], the system named is ss DNA. The experiment in a line: ESI-MS monitoring of ligand binding to the single strands in the duplex mixture. As to conditions: 10 µM duplex 6:7 mixture, increasing ligand concentration. As for the experimental part:
The complementary oligonucleotide strands and corresponding oligonucleotide duplex are not critical to the invention. The duplex may comprise a DNA:DNA duplex, an RNA:RNA duplex or a DNA:RNA duplex. The DNA strands utilized herein are described in detail below. Once desalted, the complementary oligonucleotide strands are added in equimolar mixture in 50 mM ammonium acetate to make a […] duplex stock solution. The duplex stock solution is placed in a 60° C water bath for 10 minutes and then slowly cooled to room temperature. Test solutions are made by adding test compound (dissolved in methanol (MeOH)) to stock solution in a 2:1 water:isopropyl alcohol. Final concentrations of test compound and duplex are preferably 10 µM each. […]
Once the appropriate samples and solutions are prepared, one may proceed with the ESI-MS procedure. […] The spectra is then analyzed for the presence of bound test ligand. […] In order to ensure statistical accuracy, data are preferably summed, saved, and analyzed over a large numbers of scans, preferably 30 to 50 scans, more preferably 40 scans.
The oligonucleotides utilized in the examples herein were known to interact with a particular target(s) of interest. […] When the duplex solution was analyzed by ESI-MS, it was possible to see at least three charge stages of the duplex as well as some charge states of the two single strands. […]

The subject of assay [2] is 6:7 duplex. In words: ESI-MS monitoring of non-covalent small molecule:oligonucleotide complexes with DNA duplex. It counts as binding. As to conditions: for ammonium acetate concentration tolerated with binding/complex stable: ammonium acetate varied from 10 mM to 250 mM; for relative binding affinity to 6:7 duplex: 10 mM ammonium acetate. As for the experimental part:
Regarding buffer concentration, the concentrations of ammonium acetate were varied to determine the effects of ionic strength on ligand binding. […] Of the intercalators, proflavin tolerated over 100 mM ammonium acetate with minimal shifting in binding. However, ethidium bromide and methyl green had almost 70% reduction in binding to DNA at only 33 mM ammonium acetate. The reduction in binding of ethidium bromide and methyl green at high salt concentrations is evidence of the electrostatic nature of the first step in binding in the intercalation of these compounds. Proflavin, which is […] at the test pH, should be less affected by an increase in competing counterions.
The general protocol for preparing the samples utilized in the present invention is as follows. Complementary single-stranded oligonucleotides are desalted, preferably via ammonium acetate precipitation. This DNA desalting procedure involves the following steps. First, the oligonucleotide is dissolved in approximately 100 µL of water. Next, about 500 µL of 10 M ammonium acetate is added. The solution is mixed and allowed to rest for about 5 minutes. From about 600 to about […] of cold ethanol (EtOH) is added and the solution is set in dry ice for about 25 minutes. The solution is then centrifuged for about 20 minutes. The supernatant is removed and saved and the preceding steps are repeated once. Subsequently, 1 ml of a 90:10 solution of EtOH and water are added and the solution is centrifuged for 5 minutes. This step is then repeated twice. The solution is then dried and rehydrated. Finally, OD readings are taken at 260 nanometers to ensure a 1:500 dilution.
The complementary oligonucleotide strands and corresponding oligonucleotide duplex are not critical to the invention. The duplex may comprise a DNA:DNA duplex, an RNA:RNA duplex or a DNA:RNA duplex. The DNA strands utilized herein are described in detail below. Once desalted, the complementary oligonucleotide strands are added in equimolar mixture in 50 mM ammonium acetate to make a […] duplex stock solution. The duplex stock solution is placed in a 60° C water bath for 10 minutes and then slowly cooled to room temperature. Test solutions are made by adding test compound (dissolved in methanol (MeOH)) to stock solution in a 2:1 water:isopropyl alcohol. Final concentrations of test compound and duplex are preferably 10 µM each. For example, 20 µL of the stock duplex solution is added to 80 µL of a 2:1 solution of water and IPA for a final volume of 100 µL and a final concentration of 10 µM duplex. The test compound is then added to the solution for a final concentration of 10 µM as well. One may subsequently dilute the test solution to test a range of test compound concentrations, from as low as 0.3 µM up to 10 µM.
Once the appropriate samples and solutions are prepared, one may proceed with the ESI-MS procedure. The general protocol for manual analysis is as follows. First, a 50 µL sample of test solution (comprised of about 30 picomoles of test compound) is drawn into a 100 µL syringe and infused into an LCQ Decca ion trap mass spectrometer using ESI-MS source. The sample is directly infused at a rate of about 1.5 µL/min over a period of approximately 2 minutes. The spectra is then analyzed for the presence of bound test ligand. If the test ligand does bind, the sample is re-run at lower concentrations, from about 0.3 µM up to 1.0 µM. In order to ensure statistical accuracy, data are preferably summed, saved, and analyzed over a large numbers of scans, preferably 30 to 50 scans, more preferably 40 scans.
The oligonucleotides utilized in the examples herein were known to interact with a particular target(s) of interest. They were provided according to our specifications from TriLink (La Jolla, CA). […] When the duplex solution was analyzed by ESI-MS, it was possible to see at least three charge stages of the duplex as well as some charge states of the two single strands. […]

The target in assay [3] is E.coli DNA helicase II (Escherichia coli, UniProt P03018). As to conditions: intercalation into double-stranded DNA substrate; cited from earlier work.
The subject of assay [4] is 6:7 duplex. In words: ESI-MS monitoring of non-covalent small molecule:oligonucleotide complexes with DNA duplex. It counts as binding. As to conditions: 10 µM duplex and 10 µM proflavin; FT-ICR mass spectrometer.
Where [5] appears, read: 33 mM ammonium acetate, 10 µM 6:7 duplex and 10 µM sample.
[6] abbreviates: 10 µM 6:7 duplex and 10 µM sample.

Molecules are shown by their SMILES.

E.coli DNA helicase II, sequence (P03018 whole entry): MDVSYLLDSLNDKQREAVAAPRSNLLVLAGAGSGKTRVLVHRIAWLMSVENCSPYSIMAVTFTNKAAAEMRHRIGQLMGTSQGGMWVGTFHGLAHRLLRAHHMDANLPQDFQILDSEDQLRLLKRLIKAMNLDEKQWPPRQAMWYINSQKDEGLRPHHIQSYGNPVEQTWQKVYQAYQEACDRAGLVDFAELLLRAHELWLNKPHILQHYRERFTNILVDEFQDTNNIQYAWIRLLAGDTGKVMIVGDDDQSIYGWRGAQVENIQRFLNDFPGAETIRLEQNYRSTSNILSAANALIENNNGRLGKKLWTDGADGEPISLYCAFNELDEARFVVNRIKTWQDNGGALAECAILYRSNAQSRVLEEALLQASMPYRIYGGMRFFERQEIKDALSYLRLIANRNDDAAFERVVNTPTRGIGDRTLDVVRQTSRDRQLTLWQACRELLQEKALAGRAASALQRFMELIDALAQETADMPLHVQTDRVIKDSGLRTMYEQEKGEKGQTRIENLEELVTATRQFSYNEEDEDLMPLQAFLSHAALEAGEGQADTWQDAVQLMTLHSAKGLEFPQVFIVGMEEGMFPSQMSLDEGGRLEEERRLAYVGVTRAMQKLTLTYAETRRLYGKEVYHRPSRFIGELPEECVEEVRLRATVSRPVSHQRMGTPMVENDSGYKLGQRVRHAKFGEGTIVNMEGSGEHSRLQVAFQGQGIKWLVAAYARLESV

Turning to `CN1CCN(c2ccc3[nH]c(-c4ccc5[nH]c(-c6ccc(O)cc6)nc5c4)nc3c2)CC1` [H33258, bis-benzamide], the “binding to single strand” value in assay [1] is reported as “ligand bound to ss DNA was observed in increasing quantities”. Also, the “relative amounts of the 1:1 H33258:DNA complex compared with the 2:1 H33258:DNA complex” value in assay [2] (33 mM ammonium acetate) is listed as “shifted”. For the same compound, the “change in binding (in words)” value in assay [2] (setting [5]) is listed as “appreciable reduction in binding”.
On to `Cn1cc(NC(=O)c2cc(NC(=O)c3cc(NC=O)cn3C)cn2C)cc1C(=O)NCCC(=N)N` [distamycin A], for which, in assay [2] (setting [6]), the “ammonium acetate concentration tolerated with binding/complex stable” value is listed as “up to 100 mM”. The “observation of ligand:DNA complex” value in assay [2] (500 mM ammonium acetate in solution) was “still observed (though at much reduced levels)”.
In the case of `CN(C)c1ccc(C(=C2C=CC(=[N+](C)C)C=C2)c2ccc([N+](C)(C)C)cc2)cc1.[Cl-].[Cl-]` [methyl green], in assay [2], the “relative binding affinity to 6:7 duplex” value is recorded as “methyl green > ethidium bromide > proflavin”. Besides, in assay [2] (setting [5]), the “reduction in binding to DNA” value is roughly 70%.
With `O=C1c2c(O)ccc(O)c2C(=O)c2c(NCCNCCO)ccc(NCCNCCO)c21` [mitoxantrone], in assay [3], the “effect on helicase II ATP hydrolysis and unwinding activity” value was “inhibition of ATP hydrolysis and unwinding activity”.
Turning to `Nc1ccc2cc3ccc(N)cc3nc2c1` [proflavin], the “binding between intercalator and duplex” value in assay [4] was “binding between intercalator and duplex was observed”. In addition, the “ammonium acetate concentration tolerated with binding/complex stable” value in assay [2] (setting [6]) was “over 100 mM”. Moreover, in assay [2], the “relative binding affinity to 6:7 duplex” value is “methyl green > ethidium bromide > proflavin”.
